# Data published in patent US20260232666A1, “COMPOSITIONS AND METHODS FOR INHIBITION OF RAS” (TheRas, Inc., priority 2023, published 2026).
# Assays:
# [1] = target: T1, GppNHp-loaded KRAS4b (amino acids 1-169) G12C/C118S protein (Homo sapiens, UniProt P01116, C118S/G12C); experiment: Covalent cysteine 12 modification by MALDI-TOF MS, GppNHp-loaded KRAS G12C; type: binding; conditions: 15 minutes reaction time point
# T1 construct: KRAS4b (amino acids 1-169) G12C/C118S protein; made in house
# Procedure, shortened: (§1)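 With several adducts, each species' height is expressed as a fraction of all observed protein peaks, scored on linear-mode spectra. Reactions run at pH 7.3 (HEPES, 150 mM NaCl, 1 mM MgCl2), using 1 μM protein and a 1:2.5 protein:compound ratio, and are sampled after 15 minutes in the dark.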
# [2] = target: T2, GTP-loaded KRAS4b (amino acids 1-169) G12C/C118S protein (Homo sapiens, UniProt P01116, C118S/G12C); experiment: Covalent cysteine 12 modification by MALDI-TOF MS, GTP-loaded KRAS G12C; type: binding; conditions: 15 minutes reaction time point
# T2 construct: KRAS4b (amino acids 1-169) G12C/C118S protein; made in house
# Procedure, shortened: as §1
# [3] = target: T3, GDP-loaded KRAS4b (amino acids 1-169) G12C/C118S protein (Homo sapiens, UniProt P01116, C118S/G12C); experiment: Covalent cysteine 12 modification by MALDI-TOF MS, GDP-loaded KRAS G12C; type: binding; conditions: 15 minutes reaction time point
# T3 construct: KRAS4b (amino acids 1-169) G12C/C118S protein; made in house
# Procedure, shortened: as §1
# [4] = tested on: pERK in NCI-H358 cells; experiment: Cell-based pERK HTRF assay (pERK inhibition in H358 cells); conditions: 30 min incubation
# Procedure, shortened: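 NCI-H358 cells were seeded at 4×10^4 cells/well in RPMI/10% FBS, then treated next day for 30 min at 0.25% DMSO (9-point, 3-fold series from 75 μM). Lysates were read by HTRF (d2/Eu cryptate antibody pair, 615 nm emission) after 4–24 h at room temperature to give pERK IC50.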
SMILES,GppNHp-KRAS G12C percent of modification [1],GTP-KRAS G12C percent of modification [2],GDP-KRAS G12C percent of modification [3],"IC50 ([4]; Homo sapiens, NCI-H358, 0.5 h)",IC50 [4]
C=CC(=O)N1CC[C@@H](N(C)c2nc(OC[C@@]34CCCN3C[C@H](F)C4)nc3cc(-c4ccc(F)c5sc(N)c(C#N)c45)c(C#N)cc23)[C@@H]1CC [Compound 24],C (10%≤percent of modification <50%),D (percent of modification <10%),A (percent of modification ≥70%),< 0.1 µM,
C=CC(=O)N1CC[C@@H](N(CC)c2nc(OC[C@@]34CCCN3C[C@H](F)C4)nc3cc(-c4ccc(F)c5sc(N)c(C#N)c45)c(C#N)cc23)[C@H]1C [Compound 25],A (percent of modification ≥70%),A (percent of modification ≥70%),A (percent of modification ≥70%),< 0.1 µM,
C=CC(=O)N1CC[C@@H](N(C)c2nc(OC[C@@]34CCCN3C[C@H](F)C4)nc3cc(-c4ccc(F)c5sc(N)c(C#N)c45)c(C#N)cc23)[C@@H]1C [Compound 27],A (percent of modification ≥70%),B (50≤percent of modification <70%),A (percent of modification ≥70%),< 0.1 µM,
C=CC(=O)N1CC[C@@H](N(C)c2nc(OC[C@@]34CCCN3C[C@H](F)C4)nc3cc(-c4ccc(F)c5sc(N)c(C#N)c45)c(F)cc23)[C@H]1CC [Compound 29],A (percent of modification ≥70%),A (percent of modification ≥70%),A (percent of modification ≥70%),< 0.1 µM,
C=CC(=O)N1CC[C@@H](N(C)c2nc(OC[C@@]34CCCN3C[C@H](F)C4)nc3cc(-c4ccc(F)c5sc(N)c(C#N)c45)c(F)cc23)[C@@H]1C [Compound 31],A (percent of modification ≥70%),C (10%≤percent of modification <50%),A (percent of modification ≥70%),< 0.1 µM,
C=CC(=O)N1CC[C@@H](N(C)c2nc(OC[C@@H]3C[C@@H](OC)CN3C)nc3c(F)c(-c4ccc(F)c5sc(N)c(C#N)c45)c(C(F)(F)F)cc23)[C@@H]1C [Compound 33],A (percent of modification ≥70%),B (50≤percent of modification <70%),B (50≤percent of modification <70%),< 0.1 µM,
C=CC(=O)N1C2CCC1CN(c1nc(OC[C@@]34CCCN3C[C@H](F)C4)nc3c(F)c(-c4ccc(F)c5sc(N)c(C#N)c45)c(C(F)(F)F)cc13)C2 [Compound 34],C (10%≤percent of modification <50%),D (percent of modification <10%),B (50≤percent of modification <70%),< 0.1 µM,
C=CC(=O)N1C2CC1CN(c1nc(OC[C@@]34CCCN3C[C@H](F)C4)nc3c(F)c(-c4ccc(F)c5sc(N)c(C#N)c45)c(C(F)(F)F)cc13)C2 [Compound 35],C (10%≤percent of modification <50%),C (10%≤percent of modification <50%),A (percent of modification ≥70%),< 0.1 µM,
C=CC(=O)N1C[C@H]2CC[C@@H]1CN2c1nc(OC[C@@]23CCCN2C[C@H](F)C3)nc2c(F)c(-c3ccc(F)c4sc(N)c(C#N)c34)c(C(F)(F)F)cc12 [Compound 36],D (percent of modification <10%),D (percent of modification <10%),D (percent of modification <10%),0.1 to 1 µM,
C=CC(=O)N1CC[C@@H](N(C)c2nc(OC[C@@H]3C[C@@H](OC)CN3CC)nc3c(F)c(-c4ccc(F)c5sc(N)c(C#N)c45)c(C(F)(F)F)cc23)[C@@H]1C [Compound 101],A (percent of modification ≥70%),B (50≤percent of modification <70%),A (percent of modification ≥70%),< 0.1 µM,

# Further lines, results first:
GppNHp-KRAS G12C percent of modification [1],GTP-KRAS G12C percent of modification [2],GDP-KRAS G12C percent of modification [3],"IC50 ([4]; Homo sapiens, NCI-H358, 0.5 h)",IC50 [4],SMILES
A (percent of modification ≥70%),A (percent of modification ≥70%),A (percent of modification ≥70%),< 0.1 µM,,C=CC(=O)N1CC[C@@H](N(C)c2nc(OC[C@@H]3C[C@@H](OC)CN3CC)nc3c(F)c(-c4ccc(F)c5sc(N)c(C#N)c45)c(C(F)(F)F)cc23)[C@H]1C [Compound 104]
A (percent of modification ≥70%),C (10%≤percent of modification <50%),B (50≤percent of modification <70%),< 0.1 µM,,C=CC(=O)N1CC[C@@H](N(C)c2nc(OC[C@@H]3C[C@@H](F)CN3CC)nc3c(F)c(-c4ccc(F)c5sc(N)c(C#N)c45)c(Cl)cc23)[C@@H]1C [Compound 105]
A (percent of modification ≥70%),C (10%≤percent of modification <50%),A (percent of modification ≥70%),< 0.1 µM,,C=CC(=O)N1CCN(c2nc(OC[C@@]34CCCN3C[C@H](F)C4)nc3c(F)c(-c4ccc(F)c5sc(N)c(C#N)c45)c(C(F)(F)F)cc23)C2CC21 (stereo partly drawn) [Compound 106]
A (percent of modification ≥70%),A (percent of modification ≥70%),A (percent of modification ≥70%),< 0.1 µM,,C=CC(=O)N1CC[C@@H](N(C)c2nc(OC[C@@H]3C[C@@H](F)CN3CC)nc3c(F)c(-c4ccc(F)c5sc(N)c(C#N)c45)c(C(F)(F)F)cc23)[C@H]1C [Compound 107]
A (percent of modification ≥70%),B (50≤percent of modification <70%),B (50≤percent of modification <70%),< 0.1 µM,,C=CC(=O)N1C[C@H](N(C)c2nc(OC[C@@]34CCCN3C[C@H](F)C4)nc3c(F)c(-c4ccc(F)c5sc(N)c(C#N)c45)c(C(F)(F)F)cc23)C[C@@H]1C [Compound 108]
C (10%≤percent of modification <50%),C (10%≤percent of modification <50%),A (percent of modification ≥70%),< 0.1 µM,,C=CC(=O)N1C[C@H](N(C)c2nc(OC[C@@]34CCCN3C[C@H](F)C4)nc3cc(-c4ccc(F)c5sc(N)c(C#N)c45)c(F)cc23)C[C@@H]1C [Compound 109]
A (percent of modification ≥70%),B (50≤percent of modification <70%),A (percent of modification ≥70%),0.1 to 1 µM,,C=CC(=O)N1CC[C@@H](N(C)c2nc(OC[C@@]34CCCN3C[C@H](F)C4)nc3cc(-c4nc(N)cc(C)c4C(F)(F)F)c(F)cc23)[C@H]1C [Compound 110]
D (percent of modification <10%),D (percent of modification <10%),D (percent of modification <10%),,0.1 to 1 µM,C=CC(=O)N1CC[C@@H](N(C)c2nc(OC[C@@H]3CC4(CC4)CN3C)nc3c(F)c(-c4ccc(F)c5sc(N)c(C#N)c45)c(C(F)(F)F)cc23)[C@@H]1C [Compound 112]
